Measurements published in patent publication US20110065595A1, “Method and Test Kit for the Rapid Identification and Characterization of Cells” (priority 2007, published 2011).

Test system: strain B of Bacillus cereus (β-lactamase SF-marker)
Test: Sensitivity profile of B. cereus in soil suspension using inducible β-lactamase as SF-marker (iodometric starch-iodine decolorization)
Assay type: cell-based
Details: for inhibition of the enzymatic reaction / remaining part of the enzymatic reaction: compared with control sample; for increase of time needed for decolorization versus control: compared with control sample (47 seconds); for effect on activity / synthesis of the SF marker (β-lactamase) / sensitivity or resistance of strain B to the antibiotic: judged from decolorization time; for Decolorization time: soil suspension in nutrient broth with 1.0 mcg cloxacillin inducer, 10 min at 30° C., then Assay Reagent with phenoxymethylpenicillin, control without addition 47 seconds, activity inversely proportional to time
Procedure: Reagents • Nutrient broth and Nutrient Agar were purchased from Difco (cat. No. #233000 and #211665, respectively). • Mueller Hinton agar—purchased from Difco (cat. No. 225250). • Assay Reagent solution—50 mM potassium iodide and 10 mM iodine in 0.75% aqueous starch solution • L-alanine—was used for spore germination (purchased from Fluka, cat no. 29236).
BBL antibiotic sensitivity testing disks were used for sensitivity profiling were placed in respective test tubes:
Preparation of anti-penicillinase antibodies was previously described by the present inventor [Citri, N; et al. Nature 190 (478):1010-1011 (1961)]. Briefly neutralizing antiserum was prepared by immunizing rabbits with a highly purified preparation of exopenicillinase produced by strain 569/H of B. cereus. Twenty mg of the enzyme were administered with Freund's adjuvant in three intramuscular injections at ten-day intervals.
In order to perform a combined characterization of bacteria identification and antibiotic sensitivity profiling, the inventor used a strain of Bacillus cereus expressing the characterizing enzyme β-lactamase (penicillinase) that is used herein as a structural-functional marker (SF-marker).
A colony of strain B of Bacillus cereus was dispersed in 0.5 gm of garden soil suspended in 3 ml of distilled water. Samples of the suspension, 0.3 ml each, were placed in 5 test, tubes, each containing 0.5 ml nutrient broth [double strength] spiked with 1.0 mcg cloxacillin, and each supplemented as listed in Table 1 below. After 10 min. at 30° C. the test was initiated by the addition to each test tube of 0.1 ml of the Assay Reagent solution containing the substrate, phenoxymethylpenicillin [10 mg/mL]. The time required for complete decolorization of the starch-iodine complex by the product of the catalytic reaction was recorded as shown in Table 1.

effect on activity / synthesis of the SF marker (β-lactamase) | sensitivity or resistance of strain B to the antibiotic | Compound | inhibition of the enzymatic reaction | remaining part of the enzymatic reaction | increase of time needed for decolorization versus control | Decolorization time [s]
inhibited | sensitive | C[C@H]1c2cccc(O)c2C(=O)C2=C(O)[C@]3(O)C(=O)C(C(N)=O)=C(O)[C@@H](N(C)C)[C@@H]3[C@@H](O)[C@@H]21 [Doxycyclin, Doxycycline] | about 99% | about 0.12% | about 17.3 folds | 815
inhibited | sensitive | CC[C@H]1OC(=O)[C@H](C)[C@@H](O[C@H]2C[C@@](C)(OC)[C@@H](O)[C@H](C)O2)[C@H](C)[C@@H](O[C@@H]2O[C@H](C)C[C@H](N(C)C)[C@H]2O)[C@](C)(O)C[C@@H](C)C(=O)[C@H](C)[C@@H](O)[C@]1(C)O [Erythromycin] | about 99% | about 0.12% | ~18 folds | >850

Compound | effect on activity / synthesis of the SF marker (β-lactamase) | sensitivity or resistance of strain B to the antibiotic | inhibition of the enzymatic reaction | remaining part of the enzymatic reaction | increase of time needed for decolorization versus control | Decolorization time [s]
Gentamicin | no effect | resistant |  |  |  | 48
